Measurements reported in US10292391B2, “Pesticidally active 1,2,4-triazole derivatives with sulphur containing substituents” (Syngenta Participations AG, priority 2015, dated 2019).

Legend:
[1] = system: Spodoptera littoralis (Egyptian Cotton Leaf Worm); assay: Activity against Spodoptera littoralis, systemic via lettuce grown on treated agar; assay type: in vivo; details: 144 h, test rate of 12.5 ppm, root uptake by lettuce, 6 days after infestation, read-out: effect in at least one of the three categories (mortality, anti-feedancy, or growth inhibition)
Excerpt: Test compounds were applied by pipette from 10,000 ppm DMSO stock solutions into 24-well plates and mixed with agar. Lettuce seeds were placed on the agar and the multi well plate was closed by another plate which contains also agar. After 7 days the roots have absorbed the compound and the lettuce has grown into the lid plate. The lettuce leafs were now cut off into the lid plate. Spodoptera eggs were pipetted through a plastic stencil on a humid gel blotting paper and the plate closed with it. The samples were assessed for mortality, anti-feedant effect and growth inhibition in comparison to untreated samples 6 days after infestation.

[2] = system: Euschistus heros(Neotropical Brown Stink Bug); assay: Activity against Euschistus heros, sprayed soybean leaf; assay type: in vivo; details: 120 h, application rate of 200 ppm, N-2 nymphs, 5 days after infestation, read-out: effect in at least one of the two categories (mortality or growth inhibition)
Method: Soybean leaf on agar in 24-well microtiter plates were sprayed with aqueous test solutions prepared from 10,000 ppm DMSO stock solutions. After drying the leaf were infested with N-2 nymphs. The samples were assessed for mortality and growth inhibition in comparison to untreated samples 5 days after infestation.

[3] = system: Plutella xylostella (Diamond Back Moth); assay: Activity against Plutella xylostella, treated artificial diet; assay type: in vivo; details: 120 h, application rate of 200 ppm, L2 larvae, 5 days after infestation, read-out: effect in at least one of the two categories (mortality or growth inhibition)
Method: (§1) 24-well microtiter plates with artificial diet were treated with aqueous test solutions prepared from 10,000 ppm DMSO stock solutions by pipetting. After drying, the plates were infested with L2 larvae (10 to 15 per well). The samples were assessed for mortality and growth inhibition in comparison to untreated samples 5 days after infestation.

[4] = system: Diabrotica Balteata (Corn Root Worm); assay: Activity against Diabrotica balteata, sprayed maize sprouts; assay type: in vivo; details: 96 h, application rate of 200 ppm, L2 larvae, 4 days after infestation, read-out: effect in at least one of the two categories (mortality or growth inhibition)
Method: as §1, with “Maize sprouts, placed on an agar layer in 24-well” for “24-well”, “plates” for “plates with artificial diet”, “spraying.” for “pipetting.”, “(6” for “(10”, “10” for “15”, “4” for “5”

[5] = system: Frankliniella occidentalis (Western Flower Thrips); assay: Activity against Frankliniella occidentalis, sprayed sunflower leaf discs; assay type: in vivo; details: foliar, 168 h, application rate of 200 ppm, population of mixed ages, 7 days after infestation
Method: (§2) Sunflower leaf discs were placed on agar in 24-well microtiter plates and sprayed with aqueous test solutions prepared from 10,000 DMSO stock solutions. After drying the leaf discs were infested with a Frankliniella population of mixed ages. The samples were assessed for mortality 7 days after infestation.

[6] = system: Myzus persicae (Green Peach Aphid); assay: Activity against Myzus persicae, sprayed sunflower leaf discs; assay type: in vivo; details: foliar, 144 h, application rate of 200 ppm, aphid population of mixed ages, 6 days after infestation
Method: Sunflower leaf discs were placed on agar in a 24-well microtiter plate and sprayed with aqueous test solutions prepared from 10,000 ppm DMSO stock solutions. After drying, the leaf discs were infested with an aphid population of mixed ages. The samples were assessed for mortality 6 days after infestation.

[7] = system: Thrips tabaci (Onion Thrips); assay: Activity against Thrips tabaci, sprayed sunflower leaf discs; assay type: in vivo; details: foliar, 144 h, application rate of 200 ppm, thrips population of mixed ages, 6 days after infestation
Method: as §2, with “10,000 ppm” for “10,000”, “thrips” for “Frankliniella”, “6” for “7”

[8] = system: Bemisia tabaci (Cotton White Fly); assay: Activity against Bemisia tabaci, sprayed cotton leaf discs; assay type: in vivo; details: foliar, 144 h, application rate of 200 ppm, adult white flies, 6 days after incubation
Method: Cotton leaf discs were placed on agar in 24-well microtiter plates and sprayed with aqueous test solutions prepared from 10,000 ppm DMSO stock solutions. After drying the leaf discs were infested with adult white flies. The samples were checked for mortality 6 days after incubation.

[9] = system: Spodoptera littoralis (Egyptian Cotton Leaf Worm); assay: Activity against Spodoptera littoralis, sprayed cotton leaf discs; assay type: in vivo; details: foliar, 72 h, application rate of 200 ppm, L1 larvae, 3 days after infestation, read-out: control (at least one of mortality, anti-feedant effect, and growth inhibition)
Method: Cotton leaf discs were placed on agar in 24-well microtiter plates and sprayed with aqueous test solutions prepared from 10,000 ppm DMSO stock solutions. After drying the leaf discs were infested with five L1 larvae. The samples were assessed for mortality, anti-feedant effect, and growth inhibition in comparison to untreated samples 3 days after infestation. Control of Spodoptera littoralis by a test sample is when at least one of mortality, anti-feedant effect, and growth inhibition is higher than the untreated sample.

[10] = system: Myzus persicae (Green Peach Aphid); assay: Activity against Myzus persicae, systemic via roots of pea seedlings; assay type: in vivo; details: 144 h, test rate of 24 ppm, roots of pea seedlings in test solution, 6 days
Method: Roots of pea seedlings infested with an aphid population of mixed ages were placed directly in the aqueous test solutions prepared from 10,000 DMSO stock solutions. The samples were assessed for mortality 6 days after placing seedlings in test solutions.

[11] = system: Tetranychus urticae (Two-Spotted Spider Mite); assay: Activity against Tetranychus urticae, sprayed bean leaf discs; assay type: in vivo; details: foliar, 192 h
Method: Bean leaf discs on agar in 24-well microtiter plates were sprayed with aqueous test solutions prepared from 10,000 ppm DMSO stock solutions. After drying the leaf discs were infested with a mite population of mixed ages. The samples were assessed for mortality on mixed population (mobile stages) 8 days after infestation.

| melting point | SMILES | percent control (mortality, anti-feedancy or growth inhibition) at 12.5 ppm [1] | percent effect (mortality or growth inhibition) at 200 ppm [2] | percent effect (mortality or growth inhibition) at 200 ppm [3] | percent effect (mortality or growth inhibition) at 200 ppm [4] | mortality at 200 ppm [5] | mortality at 200 ppm [6] | mortality at 200 ppm [7] | mortality at 200 ppm [8] | mortality at 200 ppm [9] | mortality at 24 ppm [10] | mortality at 200 ppm [11] |
| --- | --- | --- | --- | --- | --- | --- | --- | --- | --- | --- | --- | --- |
| – | CCS(=O)(=O)c1cc(-n2cc(C(F)(F)F)cn2)cnc1-c1nnc(-c2cc(C(F)(F)F)ccn2)n1C [Compound P6] | ≥ 80% | ≥ 80% | ≥ 80% | ≥ 80% | ≥ 80% | ≥ 80% | ≥ 80% | ≥ 80% | ≥ 80% | – | – |
| – | CCS(=O)(=O)c1cc(-n2cc(C#N)cn2)cnc1-c1nnc(-c2cc(C(F)(F)F)ccn2)n1C [Compound P14, 1-[5-ethylsulfonyl-6-[4-methyl-5-[4-(trifluoromethyl)-2-pyridyl]-1,2,4-triazol-3-yl]-3-pyridyl]pyrazole-4-carbonitrile] | ≥ 80% | ≥ 80% | ≥ 80% | ≥ 80% | ≥ 80% | ≥ 80% | ≥ 80% | ≥ 80% | ≥ 80% | ≥ 80% | – |
| – | CCS(=O)(=O)c1cc(C2(C#N)CC2)cnc1-c1nnc(-c2cc(C(F)(F)F)ccn2)n1C [Compound P17, 1-[5-ethylsulfonyl-6-[4-methyl-5-[4-(trifluoromethyl)-2-pyridyl]-1,2,4-triazol-3-yl]-3-pyridyl]cyclopropanecarbonitrile] | ≥ 80% | ≥ 80% | ≥ 80% | ≥ 80% | ≥ 80% | ≥ 80% | ≥ 80% | ≥ 80% | ≥ 80% | ≥ 80% | – |
| – | CCS(=O)(=O)c1cc(-c2nccc(C#N)n2)cnc1-c1nnc(-c2cc(C(F)(F)F)ccn2)n1C [Compound P19] | – | – | – | ≥ 80% | – | – | – | – | ≥ 80% | – | ≥ 80% |
| – | CCS(=O)(=O)c1cc(-n2cnc(Cl)n2)cnc1-c1nnc(-c2cc(C(F)(F)F)ccn2)n1C [Compound P27] | ≥ 80% | ≥ 80% | ≥ 80% | ≥ 80% | ≥ 80% | ≥ 80% | ≥ 80% | ≥ 80% | ≥ 80% | ≥ 80% | – |
| 174 to 175 °C | CCSc1ccc(-c2ccc(C(F)(F)F)cc2)nc1-c1nnc(-c2cc(C(F)(F)F)ccn2)n1C [Compound P31, 3-ethylsulfanyl-2-[4-methyl-5-[4-(trifluoromethyl)-2-pyridyl]-1,2,4-triazol-3-yl]-6-[4-(trifluoromethyl)phenyl]pyridine] | – | – | – | – | – | – | – | – | – | – | – |
| 94 to 95 °C | CCSc1cc(SC(F)(F)F)cnc1-c1nnc(-c2cc(C(F)(F)F)ccn2)n1C [Compound P33, 3-ethylsulfanyl-2-[4-methyl-5-[4-(trifluoromethyl)-2-pyridyl]-1,2,4-triazol-3-yl]-5-(trifluoromethylsulfanyl)pyridine] | – | – | – | – | – | – | – | – | – | – | – |
| – | CCS(=O)(=O)c1cc(-n2cnc(Cl)n2)cnc1-c1nnc(-c2cc(C(F)(F)F)ncn2)n1C [Compound P45] | – | ≥ 80% | ≥ 80% | ≥ 80% | ≥ 80% | ≥ 80% | ≥ 80% | ≥ 80% | ≥ 80% | ≥ 80% | – |
| 242 to 244 °C | CCS(=O)(=O)c1ccc(-n2cnc(C#N)n2)nc1-c1nnc(-c2cc(C(F)(F)F)ncn2)n1C [Compound P49] | – | – | – | – | – | – | – | – | – | – | – |
| 201 to 203 °C | CCS(=O)(=O)c1ccc(-c2cccc(F)c2)nc1-c1nnc(-c2cc(C(F)(F)F)ncn2)n1C [Compound P51] | – | – | – | – | – | – | – | – | – | – | – |
